Assay [1] concerns HER1, HER2 and HER3 receptors. The experiment in a line: ERK-Luc, JNK-Luc and NFkB-Luc reporters in HEK293 cells co-transfected with HER1, HER2 and HER3, treated with ligand. Type of assay: cell-based, human. Particulars: ligand 6 hours; HER1, HER2, HER3 co-transfected HEK293. As for the experimental part: In order to identify reporters to measure the activity of HER2 receptor, expression plasmids of HER1, HER2 and HER3 were co-transfected with different reporter constructs, including ERK-Luc, JNK-Luc and NFkB-Luc, into the HEK293 cells. After 24 hours, the transfected cells were treated with either EGF (HER1 receptor ligand) or NRG1 (HER3 receptor ligand) for 6 hours. The luciferase reporter activity of the transfected cells was measured by Nano-Glo® Luciferase Assay (Promega). […] JNK-Luc reporter was activated when the transfected cells were treated with either HER1 or HER3 ligand (FIG. 11B).
For cell transfection experiments, HEK293 cells (ATCC) were plated at density of 4-8×10^4 cells per well (96-well plates) or 1-2×10^4 cells per well (384-well plates) in phenol red-free MEM containing 10% FBS and antibiotics. Either DNA plasmid or linear DNA was mixed with TransIT-293 transfection reagent (Mirus Bio LLC). Once cells were trypsinized, DNA transfection mix was added. The cells were then incubated for 24 or 48 hours.

Assay [2] has as its target T1, wild-type HER2 receptor (Homo sapiens, UniProt P04626).
T1 construct: expressed in transfected cells
The assay can be described thus: 6×JNK-Luc reporter in HEK293 DKO #27 cells transfected with HER2 and HER3 expression plasmids. Type of assay: cell-based. Particulars: 6 hours. As for the experimental part: In example 4, the generation double knockout cells (HEK293 DKO #27) of HER1 and HER2 receptors was described. No protein expression of HER1 and HER2 receptors was detected by immunoblot assays. In order to characterize whether these cells are desirable for use in the assay of the invention, 6×JNK-Luc was co-transfected with expression plasmids of HER3 and wild-type HER2 receptors. After 24 hours, the transfected cells were treated with a serial dilution of NRG1 (HER3 receptor ligand) for 6 hours. The luciferase reporter activity of the transfected cells was measured by Nano-Glo® Luciferase Assay (Promega).
In order to validate the requirement of HER2 receptor in the activation of 6×JNK-Luc reporter in response to NRG1 treatment, the DKO #27 cells were transfected with the wild-type HER2 and HER3 expression plasmids followed by treatment of HER2 inhibitors for 6 hours. The luciferase reporter activity of the treated cells was measured by Nano-Glo® Luciferase Assay (Promega). […]
In order to validate that this 6×JNK-Luc reporters has the capacity of measuring HER2 receptor activity, the reporters were co-transfected with expression plasmids of HER3 and wild-type, constitutively active or kinase-dead HER2 receptors into the DKO #27 cells. […] The luciferase reporter activity of the transfected cells was measured by Nano-Glo® Luciferase Assay (Promega). […]

Assay [3] has as its target T1, wild-type HER2 receptor. The assay can be described thus: Clone #28 stable 6×JNK-Luc reporter cells with HER3 plasmid and HER2 linear expression cassette. Type of assay: cell-based. The conditions noted are these: HER3 plasmid and HER2 linear expression DNA, 6 hours. As for the experimental part:
In the assay of the invention, expression of patient HER2 receptor is in the linear expression cassette format instead of plasmid DNA. Therefore, the clone #28 cells were transfected with HER3 expression plasmid and HER2 linear expression DNA. After 24 hours, the transfected cells were stimulated with a serial dilution of NRG1 for 6 hours. The luciferase reporter activity was measured. […] Therefore, this clone can be used to measure HER2 receptor activity by transfecting linear expression DNA of HER2.
In order to validate that the clone #28 cells was capable to measure the HER2 receptor activity, expression plasmids of HER3 were co-transfected with wild-type, constitutively active or kinase-dead HER2 receptors. […] The luciferase reporter activity of the transfected cells was measured by Nano-Glo® Luciferase Assay (Promega). […] However, no activation of reporter was detected when the cells were transfected with kinase-dead form of HER2 receptor.
In order to validate that the clone #28 reporter cells were capable of measuring the response of HER2 receptor to its inhibitors, these cells were first transfected with the HER2 linear expression DNA and HER3 expression plasmids followed by treatment of HER2 inhibitors for 6 hours in the presence of NRG1. The luciferase reporter activity of the treated cells was measured by Nano-Glo® Luciferase Assay (Promega). […]

Entries after “also recorded” stand apart in the source; their conditions may differ.

Turning to “NRG1: neuregulin-1, HER3 receptor ligand”, in assay [1], the ERK-Luc reporter activation result is “activated”, the JNK-Luc reporter activation result is on record as “activated” and the NFkB-Luc reporter activation entry is recorded as “no activation”. Moreover, the “6×JNK-Luc reporter activation by ligand” value in assay [2] was “dose dependent activation; also recorded: activated”. Moreover, the “reporter activation by ligand” value in assay [3] is reported as “dose dependent manner; also recorded: activated”.

The values are drawn from patent publication US11319601B2, “Cell based assay” (Medical Diagnostic Laboratories, L.L.C., priority 2017, dated 2022).
